According to US20230159931A1, “TARGETING THE PALMOTYLATION/DEPALMOTYLATION CYCLE TO TREAT INFLAMMATORY DISEASES” (CORNELL UNIVERSITY, priority 2020, published 2023):

Columns and labels:
[1] = test system: Bone marrow-derived macrophages (BMDM); assay: Cytokine mRNA expression during LPS priming of BMDM (qRT-PCR); assay type: cell-based; details: 100 ng/mL LPS, 2-BP 10 μM or 25 μM, 6 hours
Method: FIGS. 12A-12D. 2-BP, a pan-DHHC inhibitor, decreases cytokines mRNA expression during the LPS priming step of inflammasome activation. Bone marrow-derived macrophages (BMDM) were treated with 100 ng/mL lipopolysaccharide (LPS), which can prime BMDM for inflammasome activation. A small molecule that inhibits all the DHHC family of palmitoyltransferases (DHHCs), 2-bromopalmitate (2-BP), was added at 10 μM or 25 μM together with LPS. The cells were cultured with LPS and 2-BP for 6 hours and then the mRNA levels of several pro-inflammatory cytokines: (A) IL-1 beta, (B) IL-6, (C) IL-12 beta, and (D) IL-18, were measured by quantitative reverse transcription PCR (qRT-PCR).
Bone marrow-derived macrophages (BMDM) were treated with 100 ng/mL lipopolysaccharide (LPS), which can prime BMDM for inflammasome activation. A small molecule that inhibits all the DHHC family of palmitoyltransferases (DHHCs), 2-bromopalmitate (2-BP), was added at 10 μM or 25 μM together with LPS. The cells were cultured with LPS and 2-BP for 6 hours and then the mRNA levels of several pro-inflammatory cytokines: IL-1 beta (FIG. 12A), IL-6 (FIG. 12B), IL-12 beta (FIG. 12C), and IL-18 (FIG. 12D), were measured by quantitative reverse transcription PCR (qRT-PCR).

NLRP3 inflammasome = assay: NLRP3-mediated inflammasome activation in peritoneal macrophage (secreted IL-1 beta); assay type: cell-based; details: peritoneal macrophage primed with LPS 200 ng/mL 4h; 2-BP 25 μM with ATP 5 mM or Nigericin 10 μM, 1 h
Method: FIG. 13. 2-BP affects NLRP3-mediated inflammasome activation. Peritoneal macrophage was first primed with LPS (200 ng/mL) in DMEM medium (without serum) for 4h, and then 2-BP (25 μM) and ATP (5 mM) or Nigericin (10 μM) were added to the cell culture and incubated for 1 h. ATP and nigericin are two reagents that are commonly used to activate the NLRP3 inflammasome. The activation of NLRP3 inflammasome was then monitored by measuring the level of IL-1 beta secreted to the medium.
Peritoneal macrophage was first primed with LPS (200 ng/mL) in DMEM medium (without serum) for 4h, and then 2-BP (25 μM) and ATP (5 mM) or Nigericin (10 μM) were added to the cell culture and incubated for 1 h. ATP and nigericin are two reagents that are commonly used to activate the NLRP3 inflammasome. The activation of NLRP3 inflammasome was then monitored by measuring the level of IL-1 beta secreted to the medium (FIG. 13). The data support that inhibiting DHHCs with 2-BP can decrease NLRP3 inflammasome activation.

SMAD2 S-palmitoylation = SMAD2 S-palmitoylation in HEK293T cells treated with APT inhibitors (Alk14, in-gel fluorescence); assay type: cell-based, human; details: 10 μM APT inhibitors for 24 hours; HEK293T cells with HA-DHHC7 and Flag-SMAD2
Description: FIGS. 7A-7G. APT2 is the depalmitylase of SMAD2 and C-terminal phosphorylation of SMAD2 is S-palmitoylation independent. (A) C-terminal phosphorylation (Ser465/Ser467) levels of Flag-SMAD2 (p-SMAD2(C2)) in HEK293T cells expressing HA-tagged mouse DHHC1-23. SMAD2 was pulled down with Flag beads and subjected to western blot analyses. (B) HEK293T cells were transfected with HA-tagged DHHC7 and Flag-SMAD2 WT and C41/81S mutant plasmid and treated with Alk14. The S-palmitoylation level of immunoprecipitated SMAD2 was visualized by in-gel fluorescence and the p-SMAD2(C2) level was detected by western blot analyses. […] The S-palmitoylation level of immunoprecipitated SMAD2 was visualized by in-gel fluorescence. […] The cells were labeled with Alk14 and the S-palmitoylation of SMAD2 was determined by in-gel fluorescence. […] The cells were labeled with Alk14 and the S-palmitoylation of SMAD2 was determined by in-gel fluorescence and the p-SMAD2(C2) level was detected by western blot analyses. […]
Cells were treated with 50 μM palmitic acid analogue Alkyne 14 (Alk14) for 5 h and the collected and lysed in 1% NP-40 lysis buffer (25 mM Tris-HCl pH 8.0, 150 mM NaCl, 10% glycerol, 1% Nonidet P-40) with protease inhibitor cocktail. […] The protein concentration was determined by Bradford assay (23200, Thermo Fisher). […]

Row | Structure (SMILES) | IL-1 beta mRNA level [1] | IL-6 mRNA level [1] | IL-12 beta mRNA level [1] | IL-18 mRNA level [1] | NLRP3 inflammasome activation (level of IL-1 beta secreted to the medium) (NLRP3 inflammasome) | SMAD2 S-palmitoylation signal (SMAD2 S-palmitoylation)
1 | CCCCCCCCCCCCCCC(Br)C(=O)O (stereo not drawn) [2-BP, 2-bromopalmitic acid] | decrease the mRNA levels of all these cytokines in a concentration dependent manner | decrease the mRNA levels of all these cytokines in a concentration dependent manner | decrease the mRNA levels of all these cytokines in a concentration dependent manner | decrease the mRNA levels of all these cytokines in a concentration dependent manner | decrease | –
2 | CCCCCCCCCC[C@@H]1C(=O)O[C@H]1CCc1ccc(OC)c(OC)c1 [palmostatin B] | – | – | – | – | – | significantly enhanced
